# “Also recorded” adds a separate entry of the source. Marks after values point to notes of the source that are not given here.
# Experiments:
# [1] = test system: CYP2D; design: method as in Cyrus et al., 2011 and references herein; details: human; ref Cyrus et al., 2011 and references herein; cited from earlier work
# [2] = molecular target: T1, CYP2D (Sus scrofa, UniProt O46658); assay: Incubation with inhibitors: DXM-O-demethylation in porcine hepatic microsomes; assay type: in vitro ADME, conventional pig; details: for Inhibition of DXM-O-demethylation by inhibitor: porcine hepatic microsomes; for Ratio of residual activity (substrate + inhibitor versus substrate only), CYP2D DXM: DXM 10 µM, inhibitors SFZ 0.5, α-NFV 0.1 (1 µM), QND 0.1, KET 0.3, DDC 20, 8-MPS 1 µM, mean (SD) of 3
# T1 construct: from tissue; host or cells: pig liver microsomes
# T1 sequence (O46658 1-500): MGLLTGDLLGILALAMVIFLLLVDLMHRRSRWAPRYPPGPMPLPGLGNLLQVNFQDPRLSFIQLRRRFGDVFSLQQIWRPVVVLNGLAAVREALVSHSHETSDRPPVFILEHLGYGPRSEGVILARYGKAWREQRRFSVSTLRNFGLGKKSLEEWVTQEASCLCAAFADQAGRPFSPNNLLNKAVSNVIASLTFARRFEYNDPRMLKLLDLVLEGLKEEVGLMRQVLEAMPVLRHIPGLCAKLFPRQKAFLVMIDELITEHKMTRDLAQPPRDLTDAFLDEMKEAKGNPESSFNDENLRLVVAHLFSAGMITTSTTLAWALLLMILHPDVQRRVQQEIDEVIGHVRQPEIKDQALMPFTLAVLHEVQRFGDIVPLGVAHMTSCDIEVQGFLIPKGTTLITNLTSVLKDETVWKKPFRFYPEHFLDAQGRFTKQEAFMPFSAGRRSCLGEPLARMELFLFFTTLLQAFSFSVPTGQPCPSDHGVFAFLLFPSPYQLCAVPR
# Procedure: (§1) The inhibitors used were α-NFV, 8-MPS, KET, SFZ, QND, and DDC for CYP1A/2 A, CYP2A, CYP3A, CYP2C, CYP2D, and CYP2E1, respectively. […] All incubations were performed in triplicate.
# [3] = test system: porcine CYP2D25; design: method as in Skaanild, 2006; Hosseinpour and Wikvall, 2000; details: ref Skaanild, 2006; Hosseinpour and Wikvall, 2000; cited from earlier work
# [4] = test system: porcine CYP450; details: outcome of general decision tree, Figure 4
# [5] = test system: porcine intestinal CYP450 enzymes; details: for Vmax in intestinal microsomes as % of the hepatic Vmax: intestinal versus hepatic microsomes
# [6] = test system: T2, CYP2C; assay: Group mean of log10 Km (Km in µM) for porcine hepatic microsomes from 8 male pigs, probe metabolism at 37 °C, LC-MS/MS.; assay type: biochemical, pig liver microsomes; details: n = 8
# T2 construct: native enzymes in hepatic or duodenal microsomes
# [7] = test system: porcine intestinal CYP450 enzymes; assay: in vitro; details: pig
# [8] = test system: hepatic CYP450 abundancies; assay: Pearson correlation between hepatic CYP450 abundancies and probe activities
# [9] = test system: T2, CYP2C; assay: Group mean of log10 Km (Km in µM) for porcine hepatic microsomes from 8 female pigs, probe metabolism at 37 °C, LC-MS/MS.; assay type: biochemical, pig liver microsomes; details: n = 8
# [10] = test system: CYP2A; design: method as in Cyrus et al., 2011 and references herein; details: human; ref Cyrus et al., 2011 and references herein; cited from earlier work
# [11] = test system: human CYP450; details: Supplementary Table 4; ref Yuan et al., 2002 and references herein; cited from earlier work
# [12] = test system: CYP2E; assay: Incubation with inhibitors: CZ-hydroxylation in porcine hepatic microsomes; assay type: in vitro ADME, conventional pig; details: for Ratio of residual activity (substrate + inhibitor versus substrate only), CYP2E CZ: CZ 50 µM, inhibitors SFZ 0.5, α-NFV 0.1 (1 µM), QND 0.1, KET 0.3, DDC 20, 8-MPS 1 µM, mean (SD) of 3; for Inhibition of CZ-hydroxylation by inhibitor: porcine hepatic microsomes
# Procedure: as §1
# [13] = test system: CYP2C; details: for Ratio of residual activity (substrate + inhibitor versus substrate only), CYP2C TB: TB 200 µM, inhibitors SFZ 0.5, α-NFV 0.1 (1 µM), QND 0.1, KET 0.3, DDC 20, 8-MPS 1 µM, mean (SD) of 3
# [14] = test system: CYP1A; assay: Incubation with inhibitors: PH-O-deethylation in porcine hepatic microsomes; assay type: in vitro ADME, conventional pig; details: PH 20 µM; inhibitors SFZ 0.5, α-NFV 0.1 (1 µM), QND 0.1, KET 0.3, DDC 20, 8-MPS 1 µM; mean (SD) of 3
# Procedure: as §1
# [15] = test system: CYP2D6; design: method as in Cyrus et al, 2011; details: ref Cyrus et al, 2011; cited from earlier work
# [16] = test system: CYP3A; assay: Incubation with inhibitors: MDZ-hydroxylation in porcine hepatic microsomes; assay type: in vitro ADME, conventional pig; details: for Ratio of residual activity (substrate + inhibitor versus substrate only), CYP3A MDZ: MDZ 20 µM, inhibitors SFZ 0.5, α-NFV 0.1 (1 µM), QND 0.1, KET 0.3, DDC 20, 8-MPS 1 µM, mean (SD) of 3
# Procedure: as §1
# [17] = test system: CYP2A; assay: Incubation with inhibitors: CM-hydroxylation in porcine hepatic microsomes; assay type: in vitro ADME, conventional pig; details: for Ratio of residual activity (substrate + inhibitor versus substrate only), CYP2A CM: CM 1 µM, inhibitors SFZ 0.5, α-NFV 0.1 (1 µM), QND 0.1, KET 0.3, DDC 20, 8-MPS 1 µM, mean (SD) of 3
# Procedure: as §1
# [18] = test system: CYP2E1; design: method as in Baranovà et al., 2005; Pratt-hyatt et al., 2010; details: human; ref Baranovà et al., 2005; Pratt-hyatt et al., 2010; cited from earlier work
# [19] = test system: CYP3A; details: human; ref Cyrus et al., 2011 and references herein; cited from earlier work
smiles,measurement,setting,value
"C=C[C@H]1C[N@@]2CC[C@H]1C[C@@H]2[C@@H](O)c1ccnc2ccc(OC)cc12 [Quinidine, quinidine]",Ki,[1],30 to 400 nM
same,Inhibition of DXM-O-demethylation by inhibitor,[2]; listed as QND,did not inhibit; also recorded: no inhibition
same,Inhibition of porcine CYP2D25,[3],not to inhibit
"CCCCNC(=O)NS(=O)(=O)c1ccc(C)cc1 [TB, tolbutamide]",Enzyme involvement: Low affinity,[4],"CYP2C, CYP3A"
same,Vmax in intestinal microsomes as % of the hepatic Vmax,[5],2%
same,"log_Km, male",[6],"3,0641"
same,Km at 10 min,[7]; duodenal microsomes,1410 µM
same,"Pearson's correlation coefficient, TB activity vs hepatic CYP2C33 abundance",[8]; level 1 (TB 5.00 µM),0.53
same,"Pearson's correlation coefficient, TB activity vs hepatic CYP2C49 abundance",[8]; level 1 (TB 5.00 µM),0.64*
same,"Pearson's correlation coefficient, TB activity vs hepatic CYP2C33 abundance",[8]; level 2 (TB 10.0 µM),0.55
same,"Pearson's correlation coefficient, TB activity vs hepatic CYP2C49 abundance",[8]; level 2 (TB 10.0 µM),0.65*
same,"Pearson's correlation coefficient, TB activity vs hepatic CYP2C33 abundance",[8]; level 3 (TB 50.0 µM),0.62*
same,"Pearson's correlation coefficient, TB activity vs hepatic CYP2C49 abundance",[8]; level 3 (TB 50.0 µM),0.68*
same,"Pearson's correlation coefficient, TB activity vs hepatic CYP2C33 abundance",[8]; level 4 (TB 100 µM),0.62*
same,"Pearson's correlation coefficient, TB activity vs hepatic CYP2C49 abundance",[8]; level 4 (TB 100 µM),0.71*
same,"Pearson's correlation coefficient, TB activity vs hepatic CYP2C33 abundance",[8]; level 5 (TB 200 µM),0.62*
same,"Pearson's correlation coefficient, TB activity vs hepatic CYP2C49 abundance",[8]; level 5 (TB 200 µM),0.69*
same,"Pearson's correlation coefficient, TB activity vs hepatic CYP2C33 abundance",[8]; level 6 (TB 400 µM),0.61
same,"Pearson's correlation coefficient, TB activity vs hepatic CYP2C49 abundance",[8]; level 6 (TB 400 µM),0.72*
same,"log_Km, female",[9],"3,3239"
COc1c2occc2cc2ccc(=O)oc12 [8-methoxypsoralen],Ki,[10],100 to 1500 nM
"Cc1ncc2n1-c1ccc(Cl)cc1C(c1ccccc1F)=NC2 [MDZ, Midazolam]",Enzyme involvement: High affinity,[4],CYP3A
same,Km,[11],3 to 5 µM
same,Duodenum a (Hill coefficient),"[5]; duodenal microsomes, pool of 16 pigs, n=3, mean (SD)",1.26 (0.048)
same,Ileum a (Hill coefficient),"[5]; ileal microsomes, pool of 16 pigs, n=3, mean (SD)",1.56 (0.45)
same,Vmax in intestinal microsomes as % of the hepatic Vmax,[5],2%
same,Jejunum a (Hill coefficient),"[5]; jejunal microsomes, pool of 16 pigs, n=3, mean (SD)",1.41 (0.043)
same,Km at 10 min,"[7]; Duodenum Km, duodenal microsomes, pool of 16 pigs, n=3, mean (SD)",22.1 µM
same,Km at 10 min,"[7]; Ileum Km, ileal microsomes, pool of 16 pigs, n=3, mean (SD)",16.2 µM
same,Km at 10 min,"[7]; Jejunum Km, jejunal microsomes, pool of 16 pigs, n=3, mean (SD)",23.1 µM
same,"Pearson's correlation coefficient, MDZ activity vs hepatic CYP3A22 abundance",[8]; level 1 (MDZ 0.50 µM),0.54
same,"Pearson's correlation coefficient, MDZ activity vs hepatic CYP3A22 abundance",[8]; level 2 (MDZ 2.00 µM),0.62
same,"Pearson's correlation coefficient, MDZ activity vs hepatic CYP3A22 abundance",[8]; level 3 (MDZ 5.00 µM),0.69*
same,"Pearson's correlation coefficient, MDZ activity vs hepatic CYP3A22 abundance",[8]; level 4 (MDZ 10.0 µM),0.71*
same,"Pearson's correlation coefficient, MDZ activity vs hepatic CYP1A2 abundance",[8]; level 5 (MDZ 20.0 µM),0.51
same,"Pearson's correlation coefficient, MDZ activity vs hepatic CYP3A22 abundance",[8]; level 5 (MDZ 20.0 µM),0.72*
same,"Pearson's correlation coefficient, MDZ activity vs hepatic CYP3A46 abundance",[8]; level 5 (MDZ 20.0 µM),0.57
same,"Pearson's correlation coefficient, MDZ activity vs hepatic CYP1A2 abundance",[8]; level 6 (MDZ 50.0 µM),0.56
same,"Pearson's correlation coefficient, MDZ activity vs hepatic CYP3A22 abundance",[8]; level 6 (MDZ 50.0 µM),0.65*
same,"Pearson's correlation coefficient, MDZ activity vs hepatic CYP3A46 abundance",[8]; level 6 (MDZ 50.0 µM),0.68*
"Nc1ccc(S(=O)(=O)Nc2ccnn2-c2ccccc2)cc1 [Sulphaphenazole, sulphaphenazole]","Ratio of residual activity (substrate + inhibitor versus substrate only), CYP2E CZ",[12],1.03 (0.061)
same,"Ratio of residual activity (substrate + inhibitor versus substrate only), CYP2C TB",[13],0.98 (0.135)
same,"Ratio of residual activity (substrate + inhibitor versus substrate only), CYP1A PH",[14],1.09 (0.030)
same,Inhibition of CYP2D6 in men,[15],do not significantly inhibit
same,"Ratio of residual activity (substrate + inhibitor versus substrate only), CYP3A MDZ",[16],1.20 (0.050)
same,"Ratio of residual activity (substrate + inhibitor versus substrate only), CYP2A CM",[17],1.05 (0.023)
same,"Ratio of residual activity (substrate + inhibitor versus substrate only), CYP2D DXM",[2],0.97 (0.080)
"CCN(CC)C(=S)S [Diethyldithiocarbamate, diethyldithiocarbamate]","Ratio of residual activity (substrate + inhibitor versus substrate only), CYP2E CZ",[12],0.87 (0.003)-
same,Inhibition of CZ-hydroxylation by inhibitor,[12],decreased
same,Ki,[18],12200 to 38000 nM
same,"Ratio of residual activity (substrate + inhibitor versus substrate only), CYP2C TB",[13],0.87 (0.046)
same,Inhibition of TB-hydroxylation by inhibitor,[13]; porcine hepatic microsomes,decreased
same,"Ratio of residual activity (substrate + inhibitor versus substrate only), CYP1A PH",[14],1.04 (0.010)
same,"Ratio of residual activity (substrate + inhibitor versus substrate only), CYP3A MDZ",[16],1.15 (0.074)
same,"Ratio of residual activity (substrate + inhibitor versus substrate only), CYP2A CM",[17],0.74 (0.079)
same,Inhibition of CM-hydroxylation by inhibitor,[17]; porcine hepatic microsomes,decreased
same,"Ratio of residual activity (substrate + inhibitor versus substrate only), CYP2D DXM",[2],0.93 (0.084)
"CC(=O)N1CCN(c2ccc(OCC3COC(Cn4ccnc4)(c4ccc(Cl)cc4Cl)O3)cc2)CC1 (stereo not shown) [Ketoconazole, ketoconazole]",Inhibition of CZ-hydroxylation by inhibitor,[12],20%
same,Effect of inhibitor on MDZ-hydroxylation,[16]; porcine hepatic microsomes,potent inhibitors
same,Inhibition of DXM-O-demethylation by inhibitor,[2],could not inhibit

# — PMC6592956, “Characterization of Porcine Hepatic and Intestinal Drug Metabolizing CYP450: Comparison with Human Orthologues from A Quantitative, Activity and Selectivity Perspective” (Scientific Reports, 2019)
